Laboratory results taken from ChEMBL document CHEMBL4229333, “Effects of rigidity on the selectivity of protein kinase inhibitors” (Eur J Med Chem, 2018).

Tests used:
[1] = molecular target: Serine/threonine-protein kinase B-raf (Homo sapiens, UniProt P15056, V600E); test: Inhibition of full length FLAG-tagged BRAF V600E mutant (unknown origin) expressed in HEK293 cells assessed as decrease in MEK phosphorylation by immunoblotting assay; assay type: cell-based
[2] = molecular target: Tyrosine-protein kinase ABL1 (Homo sapiens, UniProt P00519); test: Inhibition of ABL1 (unknown origin) at 1 uM by mobility shift microfluidics platform based assay relative to control
[3] = molecular target: RAC-alpha serine/threonine-protein kinase (Homo sapiens) (UniProt P31749); test: Inhibition of AKT1 (unknown origin) at 1 uM by mobility shift microfluidics platform based assay relative to control
[4] = molecular target: RAC-beta serine/threonine-protein kinase (Homo sapiens) (UniProt P31751); test: Inhibition of AKT2 (unknown origin) at 1 uM by mobility shift microfluidics platform based assay relative to control
[5] = molecular target: AMPK alpha2/beta1/gamma1 (Homo sapiens) (UniProt P54646+P54619+Q9Y478); test: Inhibition of AMP-A2B1G1 (unknown origin) at 1 uM by mobility shift microfluidics platform based assay relative to control; assay type: protein-complex assay
[6] = molecular target: Tyrosine-protein kinase Blk (Homo sapiens) (UniProt P51451); test: Inhibition of BLK (unknown origin) at 1 uM by mobility shift microfluidics platform based assay relative to control
[7] = molecular target: Cytoplasmic tyrosine-protein kinase BMX (Homo sapiens) (UniProt P51813); test: Inhibition of BMX (unknown origin) at 1 uM by mobility shift microfluidics platform based assay relative to control
Chain of Cytoplasmic tyrosine-protein kinase BMX (Homo sapiens) (P51813 whole entry): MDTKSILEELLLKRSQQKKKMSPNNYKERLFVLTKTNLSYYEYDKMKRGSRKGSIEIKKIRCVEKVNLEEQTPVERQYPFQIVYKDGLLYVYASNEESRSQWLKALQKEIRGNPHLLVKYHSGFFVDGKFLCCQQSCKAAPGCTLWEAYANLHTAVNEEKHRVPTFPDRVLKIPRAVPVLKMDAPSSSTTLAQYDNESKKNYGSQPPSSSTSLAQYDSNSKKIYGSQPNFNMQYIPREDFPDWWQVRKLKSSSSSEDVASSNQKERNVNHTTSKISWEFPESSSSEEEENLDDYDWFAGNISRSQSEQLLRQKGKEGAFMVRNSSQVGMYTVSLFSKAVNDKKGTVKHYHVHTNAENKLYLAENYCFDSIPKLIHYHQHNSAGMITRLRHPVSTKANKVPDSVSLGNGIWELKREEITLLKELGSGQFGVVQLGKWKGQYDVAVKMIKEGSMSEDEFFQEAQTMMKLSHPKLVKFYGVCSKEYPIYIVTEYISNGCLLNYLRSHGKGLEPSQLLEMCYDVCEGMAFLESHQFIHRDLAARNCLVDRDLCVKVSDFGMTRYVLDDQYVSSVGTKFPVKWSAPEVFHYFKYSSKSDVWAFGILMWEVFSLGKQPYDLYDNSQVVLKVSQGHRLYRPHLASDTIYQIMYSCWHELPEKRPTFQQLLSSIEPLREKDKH

[8] = molecular target: Serine/threonine-protein kinase B-raf (Homo sapiens) (UniProt P15056); test: Inhibition of BRAF (unknown origin) at 1 uM by mobility shift microfluidics platform based assay relative to control
[9] = molecular target: Calcium/calmodulin-dependent protein kinase type II subunit gamma (Homo sapiens) (UniProt Q13555); test: Inhibition of CAMK2G (unknown origin) at 1 uM by mobility shift microfluidics platform based assay relative to control
[10] = molecular target: Dual specificity protein kinase CLK2 (Homo sapiens) (UniProt P49760); test: Inhibition of CLK2 (unknown origin) at 1 uM by mobility shift microfluidics platform based assay relative to control
[11] = molecular target: Serine/threonine-protein kinase DCLK2 (Homo sapiens) (UniProt Q8N568); test: Inhibition of DCAMKL2 (unknown origin) at 1 uM by mobility shift microfluidics platform based assay relative to control
Chain of Serine/threonine-protein kinase DCLK2 (Homo sapiens) (Q8N568 whole entry): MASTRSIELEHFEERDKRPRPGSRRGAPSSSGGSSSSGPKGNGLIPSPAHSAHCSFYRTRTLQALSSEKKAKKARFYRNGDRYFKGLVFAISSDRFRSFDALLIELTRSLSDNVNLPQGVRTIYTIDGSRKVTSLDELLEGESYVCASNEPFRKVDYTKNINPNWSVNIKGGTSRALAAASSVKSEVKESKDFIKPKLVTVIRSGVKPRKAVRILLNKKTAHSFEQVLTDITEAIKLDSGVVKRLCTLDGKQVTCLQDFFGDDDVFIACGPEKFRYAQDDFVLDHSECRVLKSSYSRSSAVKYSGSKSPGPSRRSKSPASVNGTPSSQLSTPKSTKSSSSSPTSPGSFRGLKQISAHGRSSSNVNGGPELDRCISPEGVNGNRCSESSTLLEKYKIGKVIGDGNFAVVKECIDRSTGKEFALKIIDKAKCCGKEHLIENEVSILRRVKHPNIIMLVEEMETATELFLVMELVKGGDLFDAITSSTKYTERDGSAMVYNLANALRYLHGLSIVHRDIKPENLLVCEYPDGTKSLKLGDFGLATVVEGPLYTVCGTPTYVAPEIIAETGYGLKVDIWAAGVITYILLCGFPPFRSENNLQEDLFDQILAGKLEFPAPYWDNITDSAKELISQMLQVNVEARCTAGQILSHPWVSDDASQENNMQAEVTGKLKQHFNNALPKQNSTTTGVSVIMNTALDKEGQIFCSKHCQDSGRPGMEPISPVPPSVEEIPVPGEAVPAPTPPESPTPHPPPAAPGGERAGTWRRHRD

[12] = molecular target: Epidermal growth factor receptor (Homo sapiens) (UniProt P00533); test: Inhibition of EGFR (unknown origin) at 1 uM by mobility shift microfluidics platform based assay relative to control
[13] = molecular target: Tyrosine-protein kinase Fer (Homo sapiens) (UniProt P16591); test: Inhibition of FER (unknown origin) at 1 uM by mobility shift microfluidics platform based assay relative to control
[14] = molecular target: Homeodomain-interacting protein kinase 2 (Homo sapiens) (UniProt Q9H2X6); test: Inhibition of HIPK2 (unknown origin) at 1 uM by mobility shift microfluidics platform based assay relative to control
Chain of Homeodomain-interacting protein kinase 2 (Homo sapiens) (Q9H2X6 whole entry, looked up): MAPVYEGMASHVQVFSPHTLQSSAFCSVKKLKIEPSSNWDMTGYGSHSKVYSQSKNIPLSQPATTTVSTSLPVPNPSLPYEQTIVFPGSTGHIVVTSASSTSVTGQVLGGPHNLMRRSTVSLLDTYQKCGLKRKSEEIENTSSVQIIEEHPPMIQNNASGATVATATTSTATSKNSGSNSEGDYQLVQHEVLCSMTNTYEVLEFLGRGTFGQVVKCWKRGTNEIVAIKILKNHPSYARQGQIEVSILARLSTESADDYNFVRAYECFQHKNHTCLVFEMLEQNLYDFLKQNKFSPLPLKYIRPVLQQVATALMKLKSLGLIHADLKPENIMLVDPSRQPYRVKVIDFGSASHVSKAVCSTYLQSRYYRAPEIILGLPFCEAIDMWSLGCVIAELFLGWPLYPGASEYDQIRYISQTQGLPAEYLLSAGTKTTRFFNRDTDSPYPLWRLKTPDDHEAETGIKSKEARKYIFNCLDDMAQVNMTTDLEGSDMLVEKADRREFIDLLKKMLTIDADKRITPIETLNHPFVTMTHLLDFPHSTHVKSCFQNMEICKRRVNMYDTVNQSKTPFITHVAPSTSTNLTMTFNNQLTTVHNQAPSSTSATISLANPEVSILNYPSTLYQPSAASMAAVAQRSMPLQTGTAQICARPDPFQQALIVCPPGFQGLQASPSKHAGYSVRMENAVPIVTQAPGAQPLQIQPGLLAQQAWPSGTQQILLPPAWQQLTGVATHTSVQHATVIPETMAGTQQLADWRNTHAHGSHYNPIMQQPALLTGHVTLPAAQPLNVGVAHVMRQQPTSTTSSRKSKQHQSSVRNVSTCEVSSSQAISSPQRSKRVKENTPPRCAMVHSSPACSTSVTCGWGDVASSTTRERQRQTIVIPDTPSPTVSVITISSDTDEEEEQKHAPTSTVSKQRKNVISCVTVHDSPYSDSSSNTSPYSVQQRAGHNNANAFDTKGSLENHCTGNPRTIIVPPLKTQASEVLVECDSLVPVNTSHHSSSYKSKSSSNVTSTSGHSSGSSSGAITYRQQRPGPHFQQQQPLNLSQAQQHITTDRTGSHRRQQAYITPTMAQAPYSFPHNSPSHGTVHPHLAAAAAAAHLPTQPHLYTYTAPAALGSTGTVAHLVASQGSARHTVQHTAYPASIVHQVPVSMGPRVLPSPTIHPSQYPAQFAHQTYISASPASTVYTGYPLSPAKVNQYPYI

[15] = molecular target: Mast/stem cell growth factor receptor Kit (Homo sapiens) (UniProt P10721); test: Inhibition of KIT (unknown origin) at 1 uM by mobility shift microfluidics platform based assay relative to control
[16] = molecular target: Serine/threonine-protein kinase LATS1 (Homo sapiens) (UniProt O95835); test: Inhibition of LATS1 (unknown origin) at 1 uM by mobility shift microfluidics platform based assay relative to control
[17] = molecular target: Serine/threonine-protein kinase LATS2 (Homo sapiens) (UniProt Q9NRM7); test: Inhibition of LATS2 (unknown origin) at 1 uM by mobility shift microfluidics platform based assay relative to control
[18] = molecular target: Mitogen-activated protein kinase kinase kinase kinase 2 (Homo sapiens) (UniProt Q12851); test: Inhibition of MAP4K2 (unknown origin) at 1 uM by mobility shift microfluidics platform based assay relative to control
[19] = molecular target: Mitogen-activated protein kinase 1 (Homo sapiens) (UniProt P28482); test: Inhibition of MAPK1 (unknown origin) at 1 uM by mobility shift microfluidics platform based assay relative to control
Chain of Mitogen-activated protein kinase 1 (Homo sapiens) (P28482 whole entry): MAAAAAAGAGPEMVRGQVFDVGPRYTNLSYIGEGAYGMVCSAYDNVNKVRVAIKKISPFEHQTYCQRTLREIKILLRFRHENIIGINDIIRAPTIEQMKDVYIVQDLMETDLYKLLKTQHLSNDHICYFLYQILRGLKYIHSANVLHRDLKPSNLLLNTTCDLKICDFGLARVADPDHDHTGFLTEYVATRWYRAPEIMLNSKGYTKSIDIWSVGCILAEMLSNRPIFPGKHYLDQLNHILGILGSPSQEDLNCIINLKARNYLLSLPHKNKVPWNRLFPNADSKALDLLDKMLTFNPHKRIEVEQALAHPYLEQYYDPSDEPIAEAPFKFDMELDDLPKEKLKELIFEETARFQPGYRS

[20] = molecular target: Muscle, skeletal receptor tyrosine-protein kinase (Homo sapiens) (UniProt O15146); test: Inhibition of MUSK (unknown origin) at 1 uM by mobility shift microfluidics platform based assay relative to control
[21] = molecular target: Mitogen-activated protein kinase 13 (Homo sapiens) (UniProt O15264); test: Inhibition of P38-delta (unknown origin) at 1 uM by mobility shift microfluidics platform based assay relative to control
[22] = molecular target: Serine/threonine-protein kinase PAK 2 (Homo sapiens) (UniProt Q13177); test: Inhibition of PAK2 (unknown origin) at 1 uM by mobility shift microfluidics platform based assay relative to control
Chain of Serine/threonine-protein kinase PAK 2 (Homo sapiens) (Q13177 whole entry): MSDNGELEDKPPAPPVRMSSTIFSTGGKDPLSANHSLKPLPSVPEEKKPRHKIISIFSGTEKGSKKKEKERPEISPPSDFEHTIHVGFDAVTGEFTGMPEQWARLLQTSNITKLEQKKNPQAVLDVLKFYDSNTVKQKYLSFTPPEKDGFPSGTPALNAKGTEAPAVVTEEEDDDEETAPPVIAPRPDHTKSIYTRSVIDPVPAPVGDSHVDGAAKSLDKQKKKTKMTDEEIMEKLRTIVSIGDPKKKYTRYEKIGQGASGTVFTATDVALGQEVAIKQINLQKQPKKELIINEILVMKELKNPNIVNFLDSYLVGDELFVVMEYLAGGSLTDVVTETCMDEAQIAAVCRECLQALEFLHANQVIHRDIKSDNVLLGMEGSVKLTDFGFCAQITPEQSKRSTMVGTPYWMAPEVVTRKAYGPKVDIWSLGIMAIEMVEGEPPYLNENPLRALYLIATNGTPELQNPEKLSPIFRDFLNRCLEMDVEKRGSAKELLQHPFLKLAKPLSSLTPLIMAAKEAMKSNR

[23] = molecular target: Serine/threonine-protein kinase pim-2 (Homo sapiens) (UniProt Q9P1W9); test: Inhibition of PIM2 (unknown origin) at 1 uM by mobility shift microfluidics platform based assay relative to control
Chain of Serine/threonine-protein kinase pim-2 (Homo sapiens) (Q9P1W9 whole entry, looked up): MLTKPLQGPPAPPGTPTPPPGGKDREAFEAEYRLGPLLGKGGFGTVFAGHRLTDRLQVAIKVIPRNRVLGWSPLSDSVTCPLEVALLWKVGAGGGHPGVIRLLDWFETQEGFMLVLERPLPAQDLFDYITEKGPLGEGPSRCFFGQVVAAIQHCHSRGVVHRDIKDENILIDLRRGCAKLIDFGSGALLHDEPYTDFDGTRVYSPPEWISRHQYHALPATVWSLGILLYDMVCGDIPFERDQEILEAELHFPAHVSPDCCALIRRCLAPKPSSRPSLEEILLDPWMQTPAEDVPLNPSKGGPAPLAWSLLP

[24] = molecular target: Serine/threonine-protein kinase pim-3 (Homo sapiens) (UniProt Q86V86); test: Inhibition of PIM3 (unknown origin) at 1 uM by mobility shift microfluidics platform based assay relative to control
[25] = molecular target: Proto-oncogene tyrosine-protein kinase receptor Ret (Homo sapiens) (UniProt P07949); test: Inhibition of RET (unknown origin) at 1 uM by mobility shift microfluidics platform based assay relative to control
[26] = molecular target: Rho-associated protein kinase 1 (Homo sapiens) (UniProt Q13464); test: Inhibition of ROCK1 (unknown origin) at 1 uM by mobility shift microfluidics platform based assay relative to control
[27] = molecular target: Proto-oncogene tyrosine-protein kinase ROS (Homo sapiens) (UniProt P08922); test: Inhibition of ROS (unknown origin) at 1 uM by mobility shift microfluidics platform based assay relative to control
[28] = molecular target: Serine/threonine-protein kinase Sgk1 (Homo sapiens) (UniProt O00141); test: Inhibition of SGK1 (unknown origin) at 1 uM by mobility shift microfluidics platform based assay relative to control
Chain of Serine/threonine-protein kinase Sgk1 (Homo sapiens) (O00141 whole entry): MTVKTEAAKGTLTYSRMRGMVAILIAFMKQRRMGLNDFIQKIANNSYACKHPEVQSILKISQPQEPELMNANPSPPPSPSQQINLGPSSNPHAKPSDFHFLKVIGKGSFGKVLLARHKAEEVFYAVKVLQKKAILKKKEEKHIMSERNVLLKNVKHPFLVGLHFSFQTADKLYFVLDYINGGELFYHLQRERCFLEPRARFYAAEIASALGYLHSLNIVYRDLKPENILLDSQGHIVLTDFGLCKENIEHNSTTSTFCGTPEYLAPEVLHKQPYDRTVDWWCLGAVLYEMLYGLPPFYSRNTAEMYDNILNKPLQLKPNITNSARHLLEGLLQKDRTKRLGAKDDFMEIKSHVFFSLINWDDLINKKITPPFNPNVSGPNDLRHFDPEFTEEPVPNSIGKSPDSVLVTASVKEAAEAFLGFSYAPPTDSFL

[29] = molecular target: Serine/threonine-protein kinase SIK2 (Homo sapiens) (UniProt Q9H0K1); test: Inhibition of SNF1LK2 (unknown origin) at 1 uM by mobility shift microfluidics platform based assay relative to control
[30] = molecular target: SRSF protein kinase 2 (Homo sapiens) (UniProt P78362); test: Inhibition of SRPK2 (unknown origin) at 1 uM by mobility shift microfluidics platform based assay relative to control
[31] = molecular target: Serine/threonine-protein kinase TAO2 (Homo sapiens) (UniProt Q9UL54); test: Inhibition of TAOK2 (unknown origin) at 1 uM by mobility shift microfluidics platform based assay relative to control
[32] = molecular target: Tyrosine-protein kinase ZAP-70 (Homo sapiens) (UniProt P43403); test: Inhibition of ZAP70 (unknown origin) at 1 uM by mobility shift microfluidics platform based assay relative to control
[33] = molecular target: Serine/threonine-protein kinase PLK4 (Homo sapiens) (UniProt O00444); test: Inhibition of PLK4 (unknown origin) at 1 uM by mobility shift microfluidics platform based assay relative to control

Chain of Serine/threonine-protein kinase B-raf (P15056 2-766 V600E limits assumed): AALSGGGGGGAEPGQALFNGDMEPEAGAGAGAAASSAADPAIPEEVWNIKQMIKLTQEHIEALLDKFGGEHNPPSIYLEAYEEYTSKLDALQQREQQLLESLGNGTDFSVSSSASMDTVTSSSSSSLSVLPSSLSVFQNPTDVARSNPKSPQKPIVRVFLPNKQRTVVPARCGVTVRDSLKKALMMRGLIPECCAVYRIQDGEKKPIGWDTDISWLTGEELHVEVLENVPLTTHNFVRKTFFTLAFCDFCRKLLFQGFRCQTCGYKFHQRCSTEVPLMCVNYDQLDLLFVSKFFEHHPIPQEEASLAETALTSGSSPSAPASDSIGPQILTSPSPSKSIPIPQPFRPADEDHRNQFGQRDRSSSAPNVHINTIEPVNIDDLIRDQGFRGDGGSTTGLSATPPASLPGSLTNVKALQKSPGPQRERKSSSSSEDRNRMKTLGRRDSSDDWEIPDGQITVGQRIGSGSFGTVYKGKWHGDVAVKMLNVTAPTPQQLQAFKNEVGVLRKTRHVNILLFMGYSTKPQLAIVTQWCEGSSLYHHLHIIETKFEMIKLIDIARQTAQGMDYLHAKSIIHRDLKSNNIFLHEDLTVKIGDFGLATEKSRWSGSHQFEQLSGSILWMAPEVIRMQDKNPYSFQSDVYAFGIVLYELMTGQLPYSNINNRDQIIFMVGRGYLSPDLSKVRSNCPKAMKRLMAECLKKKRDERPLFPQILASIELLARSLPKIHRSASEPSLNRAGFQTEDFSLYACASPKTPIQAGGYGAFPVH

Q: `CC(C)n1nc(C#Cc2cccc(NC(=O)c3cccc(C(F)(F)F)c3)c2)c2c(N)ncnc21` was tested. Which IC50 [1] did it give?
A: 2 nM

Q: And the inhibition [2]?
A: 98%

Q: What about the inhibition [3] of the same molecule?
A: -1%

Q: What about the inhibition [4] of the same molecule?
A: 0%

Q: And the inhibition [5]?
A: 3%

Q: What about the inhibition [6] of the same molecule?
A: 95%

Q: And the inhibition [7]?
A: 98%

Q: What about the inhibition [8] of the same molecule?
A: 101%

Q: What about the inhibition [9] of the same molecule?
A: 0%

Q: And the inhibition [10]?
A: 5%

Q: And the inhibition [11]?
A: 0%

Q: And the inhibition [12]?
A: 55%

Q: What about the inhibition [13] of the same molecule?
A: 40%

Q: And the inhibition [14]?
A: 0%

Q: What about the inhibition [15] of the same molecule?
A: 98%

Q: What about the inhibition [16] of the same molecule?
A: -4%

Q: And the inhibition [17]?
A: 0%

Q: What about the inhibition [18] of the same molecule?
A: 67%

Q: And the inhibition [19]?
A: 0%

Q: And the inhibition [20]?
A: 8%

Q: What about the inhibition [21] of the same molecule?
A: 0%

Q: And the inhibition [22]?
A: 1%

Q: What about the inhibition [23] of the same molecule?
A: -1%

Q: And the inhibition [24]?
A: 0%

Q: What about the inhibition [25] of the same molecule?
A: 100%

Q: And the inhibition [26]?
A: 5%

Q: What about the inhibition [27] of the same molecule?
A: 18%

Q: And the inhibition [28]?
A: -1%

Q: And the inhibition [29]?
A: 7%

Q: What about the inhibition [30] of the same molecule?
A: -1%

Q: And the inhibition [31]?
A: 17%

Q: What about the inhibition [32] of the same molecule?
A: 3%

Q: And the inhibition [33]?
A: 74%

Q: For `CC(C)n1nc(C#Cc2cccc3cc(-c4cccc(C(F)(F)F)c4)ncc23)c2c(N)ncnc21`, which IC50 [1] is on record?
A: 14 nM

Q: What about the inhibition [2] of the same molecule?
A: 96%

Q: What about the inhibition [3] of the same molecule?
A: 0%

Q: What about the inhibition [4] of the same molecule?
A: -10%

Q: And the inhibition [5]?
A: 1%

Q: What about the inhibition [6] of the same molecule?
A: 57%

Q: What about the inhibition [7] of the same molecule?
A: 36%

Q: And the inhibition [8]?
A: 92%

Q: What about the inhibition [9] of the same molecule?
A: 2%

Q: And the inhibition [10]?
A: -1%

Q: What about the inhibition [11] of the same molecule?
A: -1%

Q: What about the inhibition [12] of the same molecule?
A: 3%

Q: What about the inhibition [13] of the same molecule?
A: 12%

Q: What about the inhibition [14] of the same molecule?
A: -1%

Q: What about the inhibition [15] of the same molecule?
A: 97%

Q: And the inhibition [16]?
A: 3%

Q: What about the inhibition [17] of the same molecule?
A: -2%

Q: And the inhibition [18]?
A: 24%

Q: What about the inhibition [19] of the same molecule?
A: 2%

Q: And the inhibition [20]?
A: 3%

Q: What about the inhibition [21] of the same molecule?
A: 2%

Q: What about the inhibition [22] of the same molecule?
A: -2%

Q: And the inhibition [23]?
A: 0%

Q: What about the inhibition [24] of the same molecule?
A: 1%

Q: And the inhibition [25]?
A: 98%

Q: And the inhibition [26]?
A: 1%

Q: What about the inhibition [27] of the same molecule?
A: 5%

Q: What about the inhibition [28] of the same molecule?
A: 0%

Q: What about the inhibition [29] of the same molecule?
A: 10%

Q: What about the inhibition [30] of the same molecule?
A: -1%

Q: What about the inhibition [31] of the same molecule?
A: 17%

Q: What about the inhibition [32] of the same molecule?
A: 4%

Q: What about the inhibition [33] of the same molecule?
A: 5%
